According to patent US20250325501A1, “A SPHINGOSINE-1-PHOSPHATE RECEPTOR (S1PR) MODULATOR FOR USE IN TREATING A PATIENT SUFFERING FROM ALZHEIMER'S DEMENTIA” (Otto-von-Guericke-Universitaet Magdeburg, priority 2022, published 2025):

Experiments:
[1] = system: CD11c+/CD14+ age/AD-associated microglia; assay: CD11c+/CD14+ age/AD-associated microglia in the cortex of AD mice; assay type: in vivo, mouse; settings: 15-month-old male AD mice; 1.0 mg/kg/2nd day for 1 month; FIG. 9
Method: (§1) The therapeutic effect of fingolimod (FTY720) as an example for an S1PR modulator for use in the treatment of Alzheimer's disease was tested in an established double transgenic amyloid precursor protein/presenilin-1 (APP/PS1) Alzheimer's disease (AD) mouse model that starts to develop amyloid-β (Aβ) pathology in the neocortex and hippocampus at two and four months of age, respectively. This AD mouse model is particularly close to human AD pathology. Impaired LTP (long-term potentiation) at Schaffer collateral CA1 synapses in acute slices ex vivo is observed at five months in these mice and becomes detectable with in vivo recordings beyond six months of age. Moreover, hippocampus-dependent learning deficits in this APP/PS1 mouse model become apparent five to eight months after birth.
(§2) Male APP/PS1 mice and littermate controls (wild-type healthy mice) were treated with intraperitoneal (i.p.) injections of fingolimod (FTY720; dissolved in 3% DMSO, 1.0 mg/kg or 3.0 mg/kg body weight) every second day for 1 to 2 months.
(§3) Substance A: Control, Substance B: FTY720 (1.0 mg/kg/2nd day) for 1 month.

[2] = as above; assay type: in vivo, mouse; settings: 15-month-old male AD mice; 1.0 mg/kg/2nd day for 1 month; FIG. 8
Method: as §1, §2, §3

[3] = system: APP/PS1 Alzheimer's disease (AD) mouse model; assay: Contextual fear learning in AD mice; assay type: in vivo; settings: 15-month-old male AD mice; 3.0 mg/kg/2nd day for 1 month; FIG. 3
Method: as §1, with “birth. […]” for “birth.”
The analyses of the animals comprises dendritic spine density analysis, LTP recordings, Morris water maze spatial learning and memory testing, contextual fear condition training and memory testing, immunohistological stainings of microgliosis and astrogliosis, biochemical brain-derived neurotrophic factor (BDNF) quantification and downstream TrkB receptor (a high affinity BDNF receptor) signaling, and statistical analysis.

[4] = system: APP/PS1 Alzheimer's disease (AD) mouse model; assay: Dendritic spine density analysis (Golgi-Cox staining) in APP/PS1 AD mice; assay type: in vivo; settings: for spine deficits in CA3 pyramidal neurons and dentate gyrus granule cells: 15-month-old male AD mice

| SMILES | increased number of CD11c+/CD14+ age/AD-associated microglia in the cortex [1] | increased frequency of CD11c+/CD14+ age/AD-associated microglia in the cortex [2] | deficit in contextual fear learning [3] | spine deficits in CA1 pyramidal neurons ([4]; 6-7-month-old male AD mice, low dose 0.2 mg/kg/2nd day for 1 month, FIG. 6) | spine deficits in CA3 pyramidal neurons and dentate gyrus granule cells ([4]; 1.0 mg/kg/2nd day for 1 month, near and distant to plaques, FIG. 4, 1 mg/kg) | spine deficits in CA3 pyramidal neurons and dentate gyrus granule cells ([4]; 1.0 mg/kg/2nd day for 1 month, near and distant to plaques, FIG. 4, listed as FTY, 1 mg/kg) | spine deficits in CA3 pyramidal neurons and dentate gyrus granule cells ([4]; 3.0 mg/kg/2nd day for 1 month, FIG. 5) | number of synaptic spines versus same-aged healthy mice (wild-type littermates) ([4]; AD mice at 6-7 months and 15-16 months, short-term treatment) | spine deficits in dendrites close to plaques ([4]; APP/PS1 mice, CA1 secondary apical dendrites <50 μm from nearest plaque, FIGS. 1 and 2) | spine deficits in dendrites distant to plaques ([4]; APP/PS1 mice, CA1 secondary apical dendrites >50 μm from closest plaque, FIGS. 1 and 2) | spine deficits in CA1 pyramidal neurons ([4]; male 15-month-old AD model mice, FIG. 1) | spine deficits in CA1 pyramidal neurons ([4]; aged (16-month-old) male AD mice, 1 mg/kg via drinking water for 1 month, starting at 15 months, FIG. 7) |
| --- | --- | --- | --- | --- | --- | --- | --- | --- | --- | --- | --- | --- |
| CCCCCCCCc1ccc(CCC(N)(CO)CO)cc1 [Fingolimod] | reduces the increased number | reduces the increased frequency | restored the deficit | restored spine deficits | restored spine deficits | completely rescued spine decrease near and distant to AB plaques | restored spine deficits | restored at both ages (6-7 months and 15-16 months) to the level of same-aged healthy mice | significant amelioration of spine deficits | complete rescue of spine deficits | restored spine deficits |  |
| CC(C)Oc1ccc(-c2nc(-c3cccc4c3CC[C@@H]4NCCO)no2)cc1C#N [Ozanimod] |  |  |  |  |  |  |  |  |  |  |  | very similar capacity to restore spine deficits |
